Measured values taken from US11306081B2, “Phenylacetamides as inhibitors of rock” (BRISTOL-MYERS SQUIBB COMPANY, priority 2017, dated 2022).

These compounds were tested against ROCK2 (Homo sapiens (Human), UniProt O75116) (assay: ROCK assay (LABCHIP 3000 peptide phosphorylation assay)). Details: 5 μM ATP, 1.5 μM peptide substrate, dose-response.
Format: biochemical
Method: The effectiveness of compounds of the present invention as ROCK inhibitors can be determined in a 30 μL assay containing 20 mM HEPES, pH 7.5, 20 mM MgCl2, 0.015% Brij-35, 4 mM DTT, 5 μM ATP and 1.5 μM peptide substrate (FITC-AHA-AKRRRLSSLRA-OH) (SEQ ID No. 1). Compounds were dissolved in DMSO so that the final concentration of DMSO was <2%, and the reaction was initiated with Rho kinase variants. After incubation, the reaction was terminated by the addition of EDTA and the phosphorylated and non-phosphorylated peptides separated using a LABCHIP® 3000 Reader (Caliper Life Sciences). […] Compounds were tested in dose-response format, and the inhibition of kinase activity was calculated at each concentration of compound. The inhibition data were fit using a curve-fitting program to determine the IC50; i.e., the concentration of compound required to inhibit 50% of kinase activity.

Chain of ROCK2 (O75116 whole entry, species assumed): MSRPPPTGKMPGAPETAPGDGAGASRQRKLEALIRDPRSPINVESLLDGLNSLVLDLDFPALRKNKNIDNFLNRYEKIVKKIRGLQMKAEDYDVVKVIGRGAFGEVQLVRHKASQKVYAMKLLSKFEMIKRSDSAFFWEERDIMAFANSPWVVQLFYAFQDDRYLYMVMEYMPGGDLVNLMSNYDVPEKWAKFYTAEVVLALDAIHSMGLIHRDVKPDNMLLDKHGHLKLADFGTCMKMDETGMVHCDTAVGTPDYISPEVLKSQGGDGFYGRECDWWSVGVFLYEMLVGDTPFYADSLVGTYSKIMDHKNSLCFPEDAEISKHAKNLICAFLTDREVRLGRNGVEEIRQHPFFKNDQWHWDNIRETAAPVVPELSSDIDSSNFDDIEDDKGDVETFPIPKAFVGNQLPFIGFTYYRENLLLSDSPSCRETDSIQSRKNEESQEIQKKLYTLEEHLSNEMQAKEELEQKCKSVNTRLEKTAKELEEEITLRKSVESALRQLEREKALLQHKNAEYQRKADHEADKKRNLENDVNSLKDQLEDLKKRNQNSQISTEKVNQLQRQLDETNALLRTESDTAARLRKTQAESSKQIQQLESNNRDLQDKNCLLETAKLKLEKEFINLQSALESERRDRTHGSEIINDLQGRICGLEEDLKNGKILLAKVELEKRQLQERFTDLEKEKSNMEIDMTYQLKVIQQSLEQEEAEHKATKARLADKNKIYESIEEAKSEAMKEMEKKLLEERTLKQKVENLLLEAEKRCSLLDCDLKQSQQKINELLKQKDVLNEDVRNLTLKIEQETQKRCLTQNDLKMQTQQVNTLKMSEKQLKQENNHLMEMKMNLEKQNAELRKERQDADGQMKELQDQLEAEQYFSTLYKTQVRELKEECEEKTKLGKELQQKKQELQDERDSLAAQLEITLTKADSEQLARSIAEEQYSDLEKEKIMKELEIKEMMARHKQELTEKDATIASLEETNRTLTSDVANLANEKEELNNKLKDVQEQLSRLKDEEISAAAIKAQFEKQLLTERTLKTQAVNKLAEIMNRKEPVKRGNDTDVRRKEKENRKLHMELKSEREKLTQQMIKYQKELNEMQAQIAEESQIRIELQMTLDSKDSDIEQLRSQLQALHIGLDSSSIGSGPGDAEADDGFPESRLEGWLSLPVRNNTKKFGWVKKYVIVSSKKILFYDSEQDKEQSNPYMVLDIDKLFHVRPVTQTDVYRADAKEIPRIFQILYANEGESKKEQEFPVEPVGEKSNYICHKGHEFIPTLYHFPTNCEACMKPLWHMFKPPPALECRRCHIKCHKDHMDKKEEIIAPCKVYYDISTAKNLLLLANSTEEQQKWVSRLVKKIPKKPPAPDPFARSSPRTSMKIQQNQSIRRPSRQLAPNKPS

IC50	Structure (SMILES)
0.087 µM	Cc1sc(NC(=O)Cc2ccc(Oc3ncccc3C(N)=O)cc2)nc1-c1ccccc1 [Example 016, 2-(4-(2-((5-methyl-4-phenylthiazol-2-yl)amino)-2-oxoethyl)phenoxy) nicotinamide]
0.404 µM	Cn1ccc(-c2csc(NC(=O)Cc3ccc(Oc4ncccc4C(N)=O)c(F)c3)n2)cc1=O [Example 017, 2-(2-fluoro-4-(2-((4-(1-methyl-2-oxo-1,2-dihydropyridin-4-yl)thiazol-2-yl)amino)-2-oxoethyl)phenoxy)nicotinamide]
0.245 µM	NC(=O)c1cccnc1Oc1ccc(CC(=O)Nc2nc(-c3cc[nH]c(=O)c3)cs2)cc1F [Example 018, 2-(2-fluoro-4-(2-oxo-2-((4-(2-oxo-1,2-dihydropyridin-4-yl)thiazol-2-yl)amino)ethyl)phenoxy)nicotinamide]
0.049 µM	COC(=O)Nc1cc(-c2nc(NC(=O)Cc3ccc(Oc4ncccc4C(N)=O)c(F)c3)sc2C)ccn1 [Example 019, methyl (4-(2-(2-(4-((3-carbamoylpyridin-2-yl)oxy)-3-fluorophenyl)acetamido)-5-methylthiazol-4-yl)pyridin-2-yl)carbamate]
0.106 µM	Cc1sc(NC(=O)Cc2ccc(Oc3ncccc3C(N)=O)c(F)c2)nc1-c1ccc(=O)n(C)c1 [Example 020, 2-(2-fluoro-4-(2-((5-methyl-4-(1-methyl-6-oxo-1,6-dihydropyridin-3-yl)thiazol-2-yl)amino)-2-oxoethyl)phenoxy)nicotinamide]
0.053 µM	Cc1sc(NC(=O)Cc2ccc(Oc3ncccc3C(N)=O)c(F)c2)nc1-c1ccc(=O)n(C(F)F)c1 [Example 021, 2-(4-(2-((4-(1-(difluoromethyl)-6-oxo-1,6-dihydropyridin-3-yl)-5-methylthiazol-2-yl)amino)-2-oxoethyl)-2-fluorophenoxy)nicotinamide]
0.041 µM	Cc1cccc(-c2nc(NC(=O)Cc3ccc(Oc4ncccc4C(N)=O)c(Cl)c3)sc2C)n1 [Example 022, 2-(2-chloro-4-(2-((5-methyl-4-(6-methylpyridin-2-yl)thiazol-2-yl)amino)-2-oxoethyl)phenoxy)nicotinamide]
0.004 µM	NC(=O)c1cccnc1Oc1ccc(CC(=O)Nc2nc(C3CCC3)c(-c3ccccn3)s2)cc1Cl [Example 023, 2-(2-chloro-4-(2-((4-cyclobutyl-5-(pyridin-2-yl)thiazol-2-yl)amino)-2-oxoethyl)phenoxy)nicotinamide]
0.008 µM	NC(=O)c1cccnc1Oc1ccc(CC(=O)Nc2nc3cc(-c4cc[nH]c(=O)c4)ccc3s2)cc1F [Example 024, 2-(2-fluoro-4-(2-oxo-2-((5-(2-oxo-1,2-dihydropyridin-4-yl)benzo[d]thiazol-2-yl)amino)ethyl)phe-noxy)nicotinamide]
0.023 µM	Cn1ccc(-c2ccc3sc(NC(=O)Cc4ccc(Oc5ncccc5C(N)=O)c(F)c4)nc3c2)cc1=O [Example 025, 2-(2-fluoro-4-(2-((5-(1-methyl-2-oxo-1,2-dihydropyridin-4-yl)benzo[d]thiazol-2-yl)amino)-2-oxoethyl)phenoxy)nico-tinamide]

Second part, the compound before the results:

Structure (SMILES)	IC50
COc1ccc2c(c1)CCc1sc(NC(=O)Cc3ccc(Oc4ncccc4C(N)=O)c(F)c3)nc1-2 [Example 001, 2-(2-fluoro-4-(2-((7-methoxy-4,5-dihydronaphtho[1,2-d]thiazol-2-yl)amino)-2-oxoethyl)phenoxy)nicotinamide]	0.01 µM
COc1ccc2sc(NC(=O)Cc3ccc(Oc4ncccc4C(N)=O)cc3)nc2c1 [Example 002, 2-(4-(2-((5-methoxybenzo[d]thiazol-2-yl)amino)-2-oxoethyl)phenoxy) Nicotinamide]	0.035 µM
CC(C)(O)COc1ccc2sc(NC(=O)Cc3ccc(Oc4ncccc4C(N)=O)c(F)c3)nc2c1 [Example 003, 2-(2-fluoro-4-(2-((5-(2-hydroxy-2-methylpropoxy)benzo[d]thiazol-2-yl)amino)-2-oxoethyl)phenoxy)nicotinamide]	0.02 µM
Cc1nn(C)cc1-c1ccc2sc(NC(=O)Cc3ccc(Oc4ncccc4C(N)=O)c(F)c3)nc2c1 [Example 004, 2-(4-(2-((5-(1,3-dimethyl-1H-pyrazol-4-yl)benzo[d]thiazol-2-yl)amino)-2-oxoethyl)-2-fluorophenoxy)nicotinamide]	0.003 µM
Cc1n[nH]c(C)c1-c1ccc2sc(NC(=O)Cc3ccc(Oc4ncccc4C(N)=O)c(F)c3)nc2c1 [Example 005, 2-(4-(2-((5-(3,5-dimethyl-1H-pyrazol-4-yl)benzo[d]thiazol-2-yl)amino)-2-oxoethyl)-2-fluorophenoxy)nic-otinamide]	0.01 µM
Cn1nc(C(F)(F)F)cc1-c1ccc2sc(NC(=O)Cc3ccc(Oc4ncccc4C(N)=O)c(F)c3)nc2c1 [Example 006, 2-(2-fluoro-4-(2-((5-(1-methyl-3-(trifluoromethyl)-1H-pyrazol-5-yl)benzo[d]thiazol-2-yl)amino)-2-oxoethyl)phenoxy) nicotinamide]	0.018 µM
NC(=O)c1cccnc1Oc1ccc(CC(=O)Nc2nc3ccccc3n2CC2CC2)cc1Cl [Example 007, 2-(2-chloro-4-(2-((1-(cyclopropylmethyl)-1H-benzo[d]imidazol-2-yl)amino)-2-oxoethyl)phenoxy)nicotinamide]	0.014 µM
COc1ccn2nc(NC(=O)Cc3ccc(Oc4ncccc4C(N)=O)c(F)c3)nc2c1 [Example 008, 2-(2-fluoro-4-(2-((7-methoxy-[1,2,4]triazolo[1,5-a]pyridin-2-yl)amino)-2-oxoethyl)phenoxy)nicotinamide]	0.007 µM
NC(=O)c1cccnc1Oc1ccc(CC(=O)Nc2cn3cc(Br)ccc3n2)cc1Cl [Example 009, 2-(4-(2-((6-bromoimidazo[1,2-a]pyridin-2-yl)amino)-2-oxoethyl)-2-chlorophenoxy)nicotinamide]	0.035 µM
Cn1nc(NC(=O)Cc2ccc(Oc3ncccc3C(N)=O)c(Cl)c2)c2cccnc21 [Example 010, 2-(2-chloro-4-(2-((1-methyl-1H-pyrazolo[3,4-b]pyridin-3-yl)amino)-2-oxoethyl)phenoxy)nicotinamide]	0.159 µM
NC(=O)c1cccnc1Oc1ccc(CC(=O)Nc2nnc(-c3cnccn3)s2)cc1F [Example 011, 2-(2-fluoro-4-(2-oxo-2-((5-(pyrazin-2-yl)-1,3,4-thiadiazol-2yl)amino)ethyl)phe-noxy) nicotinamide]	0.15 µM
Cc1nc(NC(=O)Cc2ccc(Oc3ncccc3C(N)=O)c(F)c2)sc1-c1ccccn1 [Example 012, 2-(2-fluoro-4-(2-((4-methyl-5-(pyridin-2-yl)thiazol-2-yl)amino)-2-oxoethyl)phenoxy)nic-otinamide]	0.038 µM
Cc1sc(NC(=O)Cc2ccc(Oc3ncccc3C(N)=O)c(F)c2)nc1-c1cccc(F)n1 [Example 013, 2-(2-fluoro-4-(2-((4-(6-fluoropyridin-2-yl)-5-methylthiazol-2-yl)amino)-2-oxoethyl)phenoxy)nicotinamide]	0.021 µM
Cc1sc(NC(=O)Cc2ccc(Oc3ncccc3C(N)=O)c(F)c2)nc1-c1ccc(F)cn1 [Example 014, 2-(2-fluoro-4-(2-((4-(5-fluoropyridin-2-yl)-5-methylthiazol-2-yl)amino)-2-oxoethyl)phenoxy)nic-otinamide]	0.096 µM
NC(=O)c1cccnc1Oc1ccc(CC(=O)Nc2nc3ccccc3s2)cc1F [Example 015, 2-(4-(2-(benzo[d]thiazol-2-ylamino)-2-oxoethyl)-2-fluorophenoxy)nicotinamide]	0.031 µM
